# Measurements published in PubChem BioAssay (NCI).
#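 Five concentrations, 48 hours, 96-well plates. TGI: concentration producing complete growth inhibition.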
# How the values were obtained:
# Experiment in all cases: NCI tumour cell line growth inhibition, 48 h
# TK-10 renal = tested on: TK-10 renal
# DLD-1 colon = tested on: DLD-1 colon
# SNB-75 CNS = tested on: SNB-75 CNS
# NCI-H226 lung = tested on: NCI-H226 lung
# OVCAR-5 ovarian = tested on: OVCAR-5 ovarian
# SNB-19 CNS = tested on: SNB-19 CNS
# SK-MEL-28 melanoma = tested on: SK-MEL-28 melanoma
# M14 melanoma = tested on: M14 melanoma
# UO-31 renal = tested on: UO-31 renal
# SW-620 colon = tested on: SW-620 colon
# SK-OV-3 ovarian = tested on: SK-OV-3 ovarian
# CCRF-CEM leukemia = tested on: CCRF-CEM leukemia
# NCI-H23 lung = tested on: NCI-H23 lung
# RXF-631 renal = tested on: RXF-631 renal
# COLO 205 colon = tested on: COLO 205 colon
# M19-MEL melanoma = tested on: M19-MEL melanoma
# K-562 leukemia = tested on: K-562 leukemia
# U251 CNS = tested on: U251 CNS
# HT29 colon = tested on: HT29 colon
# KM12 colon = tested on: KM12 colon
# HL-60(TB) leukemia = tested on: HL-60(TB) leukemia
# RPMI-8226 leukemia = tested on: RPMI-8226 leukemia
# SF-539 CNS = tested on: SF-539 CNS
# LOX IMVI melanoma = tested on: LOX IMVI melanoma
# MOLT-4 leukemia = tested on: MOLT-4 leukemia
# ACHN renal = tested on: ACHN renal
# DMS 114 small cell lung = tested on: DMS 114 small cell lung
# IGROV1 ovarian = tested on: IGROV1 ovarian
# SK-MEL-5 melanoma = tested on: SK-MEL-5 melanoma
# RXF 393 renal = tested on: RXF 393 renal
# SNB-78 CNS = tested on: SNB-78 CNS
# SF-268 CNS = tested on: SF-268 CNS
# HOP-18 NSCLC = tested on: HOP-18 NSCLC
# OVCAR-4 ovarian = tested on: OVCAR-4 ovarian
# SF-295 CNS = tested on: SF-295 CNS
# A549 NSCLC = tested on: A549 NSCLC
# 786-0 renal = tested on: 786-0 renal
# DMS 273 small cell lung = tested on: DMS 273 small cell lung
# OVCAR-3 ovarian = tested on: OVCAR-3 ovarian
# UACC-62 melanoma = tested on: UACC-62 melanoma
# EKVX NSCLC = tested on: EKVX NSCLC
# OVCAR-8 ovarian = tested on: OVCAR-8 ovarian
# SR leukemia = tested on: SR leukemia
# HCT-116 colon = tested on: HCT-116 colon
# HCT-15 colon = tested on: HCT-15 colon
# SN12C renal = tested on: SN12C renal
# NCI-H522 lung = tested on: NCI-H522 lung
# CAKI-1 renal = tested on: CAKI-1 renal
# SK-MEL-2 melanoma = tested on: SK-MEL-2 melanoma
# HOP-62 NSCLC = tested on: HOP-62 NSCLC
# NCI-H460 lung = tested on: NCI-H460 lung
# HOP-92 NSCLC = tested on: HOP-92 NSCLC
# LXFL 529 NSCLC = tested on: LXFL 529 NSCLC
# UACC-257 melanoma = tested on: UACC-257 melanoma
# MALME-3M melanoma = tested on: MALME-3M melanoma
# HCC-2998 colon = tested on: HCC-2998 colon
# KM20L2 colon = tested on: KM20L2 colon
# A498 renal = tested on: A498 renal
structure (smiles),measurement,setting,value
O=C1C(c2ccccc2)=[N+]([O-])c2cc([N+](=O)[O-])c(/C(Cl)=C/c3ccccc3)cc21,TGI,TK-10 renal,82.3 µM
same,TGI,DLD-1 colon,45 µM
same,TGI,SNB-75 CNS,62.8 µM
same,TGI,NCI-H226 lung,> 100 µM
same,TGI,OVCAR-5 ovarian,59.1 µM
same,TGI,SNB-19 CNS,> 100 µM
same,TGI,SK-MEL-28 melanoma,61 µM
same,TGI,M14 melanoma,40.9 µM
same,TGI,UO-31 renal,> 100 µM
same,TGI,SW-620 colon,31.1 µM
same,TGI,SK-OV-3 ovarian,> 100 µM
same,TGI,CCRF-CEM leukemia,40.3 µM
same,TGI,NCI-H23 lung,60.1 µM
same,TGI,RXF-631 renal,21.4 µM
same,TGI,COLO 205 colon,31 µM
same,TGI,M19-MEL melanoma,28.9 µM
same,TGI,K-562 leukemia,37.7 µM
same,TGI,U251 CNS,39.7 µM
same,TGI,HT29 colon,58.2 µM
same,TGI,KM12 colon,59.8 µM
same,TGI,HL-60(TB) leukemia,18.4 µM
same,TGI,RPMI-8226 leukemia,42.5 µM
same,TGI,SF-539 CNS,54.8 µM
same,TGI,LOX IMVI melanoma,26.6 µM
same,TGI,MOLT-4 leukemia,49.2 µM
same,TGI,ACHN renal,94.4 µM
same,TGI,DMS 114 small cell lung,22.9 µM
same,TGI,IGROV1 ovarian,57.5 µM
same,TGI,SK-MEL-5 melanoma,44.4 µM
same,TGI,RXF 393 renal,51.6 µM
same,TGI,SNB-78 CNS,96.9 µM
same,TGI,SF-268 CNS,> 100 µM
same,TGI,HOP-18 NSCLC,75.5 µM
same,TGI,OVCAR-4 ovarian,30.7 µM
same,TGI,SF-295 CNS,> 100 µM
same,TGI,A549 NSCLC,> 100 µM
same,TGI,786-0 renal,82.9 µM
same,TGI,DMS 273 small cell lung,37.2 µM
same,TGI,OVCAR-3 ovarian,27 µM
same,TGI,UACC-62 melanoma,83.4 µM
same,TGI,EKVX NSCLC,78.9 µM
same,TGI,OVCAR-8 ovarian,34.2 µM
same,TGI,SR leukemia,53 µM
O=C1OC(CC(=O)c2ccccc2Cl)C(Cl)=C1Cl (centres undefined),TGI,TK-10 renal,> 100 µM
same,TGI,DLD-1 colon,> 100 µM
same,TGI,HCT-116 colon,> 100 µM
same,TGI,HCT-15 colon,> 100 µM
same,TGI,NCI-H226 lung,> 100 µM
same,TGI,OVCAR-5 ovarian,> 100 µM
same,TGI,SNB-19 CNS,> 100 µM
same,TGI,SK-MEL-28 melanoma,> 100 µM
same,TGI,SN12C renal,> 100 µM
same,TGI,M14 melanoma,> 100 µM
same,TGI,UO-31 renal,> 100 µM
same,TGI,SW-620 colon,> 100 µM
same,TGI,SK-OV-3 ovarian,> 100 µM
same,TGI,CCRF-CEM leukemia,> 100 µM
same,TGI,NCI-H522 lung,> 100 µM
same,TGI,NCI-H23 lung,> 100 µM
same,TGI,RXF-631 renal,> 100 µM
same,TGI,CAKI-1 renal,> 100 µM
same,TGI,SK-MEL-2 melanoma,> 100 µM
same,TGI,COLO 205 colon,> 100 µM
same,TGI,M19-MEL melanoma,> 100 µM
same,TGI,HOP-62 NSCLC,> 100 µM
same,TGI,K-562 leukemia,> 100 µM
same,TGI,U251 CNS,> 100 µM
same,TGI,NCI-H460 lung,> 100 µM
same,TGI,HT29 colon,> 100 µM
same,TGI,KM12 colon,> 100 µM
same,TGI,HL-60(TB) leukemia,> 100 µM
same,TGI,HOP-92 NSCLC,> 100 µM
same,TGI,RPMI-8226 leukemia,> 100 µM
same,TGI,SF-539 CNS,> 100 µM
same,TGI,LOX IMVI melanoma,> 100 µM
same,TGI,MOLT-4 leukemia,> 100 µM
same,TGI,ACHN renal,> 100 µM
same,TGI,LXFL 529 NSCLC,> 100 µM
same,TGI,DMS 114 small cell lung,> 100 µM
same,TGI,IGROV1 ovarian,> 100 µM
same,TGI,SK-MEL-5 melanoma,> 100 µM
same,TGI,RXF 393 renal,> 100 µM
same,TGI,SNB-78 CNS,> 100 µM
same,TGI,SF-268 CNS,> 100 µM
same,TGI,HOP-18 NSCLC,> 100 µM
same,TGI,OVCAR-4 ovarian,> 100 µM
same,TGI,SF-295 CNS,> 100 µM
same,TGI,A549 NSCLC,> 100 µM
same,TGI,786-0 renal,> 100 µM
same,TGI,UACC-257 melanoma,> 100 µM
same,TGI,MALME-3M melanoma,> 100 µM
same,TGI,OVCAR-3 ovarian,> 100 µM
same,TGI,UACC-62 melanoma,> 100 µM
same,TGI,HCC-2998 colon,> 100 µM
same,TGI,EKVX NSCLC,> 100 µM
same,TGI,OVCAR-8 ovarian,> 100 µM
same,TGI,SR leukemia,> 100 µM
COc1cccc(CC(C)N)c1 (centres undefined),TGI,KM20L2 colon,> 100 µM
same,TGI,TK-10 renal,> 100 µM
same,TGI,DLD-1 colon,> 100 µM
same,TGI,HCT-116 colon,> 100 µM
same,TGI,SNB-75 CNS,> 100 µM
same,TGI,HCT-15 colon,> 100 µM
same,TGI,NCI-H226 lung,> 100 µM
same,TGI,OVCAR-5 ovarian,> 100 µM
same,TGI,SNB-19 CNS,> 100 µM
same,TGI,SK-MEL-28 melanoma,> 100 µM
same,TGI,SN12C renal,> 100 µM
same,TGI,M14 melanoma,> 100 µM
same,TGI,UO-31 renal,> 100 µM
same,TGI,SW-620 colon,> 100 µM
same,TGI,SK-OV-3 ovarian,> 100 µM
same,TGI,CCRF-CEM leukemia,> 100 µM
same,TGI,NCI-H522 lung,> 100 µM
same,TGI,NCI-H23 lung,> 100 µM
same,TGI,RXF-631 renal,> 100 µM
same,TGI,CAKI-1 renal,> 100 µM
same,TGI,SK-MEL-2 melanoma,> 100 µM
same,TGI,COLO 205 colon,> 100 µM
same,TGI,HOP-62 NSCLC,> 100 µM
same,TGI,K-562 leukemia,> 100 µM
same,TGI,U251 CNS,> 100 µM
same,TGI,NCI-H460 lung,> 100 µM
same,TGI,HT29 colon,> 100 µM
same,TGI,KM12 colon,> 100 µM
same,TGI,HL-60(TB) leukemia,> 100 µM
same,TGI,HOP-92 NSCLC,> 100 µM
same,TGI,RPMI-8226 leukemia,> 100 µM
same,TGI,SF-539 CNS,> 100 µM
same,TGI,LOX IMVI melanoma,> 100 µM
same,TGI,A498 renal,> 100 µM
same,TGI,MOLT-4 leukemia,> 100 µM
same,TGI,ACHN renal,> 100 µM
same,TGI,LXFL 529 NSCLC,> 100 µM
same,TGI,DMS 114 small cell lung,> 100 µM
same,TGI,IGROV1 ovarian,> 100 µM
same,TGI,SK-MEL-5 melanoma,> 100 µM
same,TGI,RXF 393 renal,> 100 µM
same,TGI,SNB-78 CNS,> 100 µM
same,TGI,SF-268 CNS,> 100 µM
same,TGI,HOP-18 NSCLC,> 100 µM
same,TGI,OVCAR-4 ovarian,> 100 µM
same,TGI,SF-295 CNS,> 100 µM
same,TGI,A549 NSCLC,> 100 µM
same,TGI,786-0 renal,> 100 µM
same,TGI,UACC-257 melanoma,> 100 µM
same,TGI,DMS 273 small cell lung,> 100 µM
same,TGI,MALME-3M melanoma,> 100 µM
same,TGI,OVCAR-3 ovarian,> 100 µM
same,TGI,UACC-62 melanoma,> 100 µM
same,TGI,HCC-2998 colon,> 100 µM
same,TGI,EKVX NSCLC,> 100 µM
same,TGI,OVCAR-8 ovarian,> 100 µM
same,TGI,SR leukemia,> 100 µM
